Source: patent US4191753A, “Anti-hypertensive peptide analogs” (University of Miami, priority 1978, dated 1980)
Where a SMILES comes first, the peptide text is derived from it.

Assays:
patients = conditions: cited from earlier work
[1] = cited from earlier work
ACE [2] = molecular target: T1, ACE (Oryctolagus cuniculus, UniProt P12822); conditions: read-out: I50 reported by Cushman, et al.; literature value; cited from earlier work
T1 sequence (P12822 34-1310): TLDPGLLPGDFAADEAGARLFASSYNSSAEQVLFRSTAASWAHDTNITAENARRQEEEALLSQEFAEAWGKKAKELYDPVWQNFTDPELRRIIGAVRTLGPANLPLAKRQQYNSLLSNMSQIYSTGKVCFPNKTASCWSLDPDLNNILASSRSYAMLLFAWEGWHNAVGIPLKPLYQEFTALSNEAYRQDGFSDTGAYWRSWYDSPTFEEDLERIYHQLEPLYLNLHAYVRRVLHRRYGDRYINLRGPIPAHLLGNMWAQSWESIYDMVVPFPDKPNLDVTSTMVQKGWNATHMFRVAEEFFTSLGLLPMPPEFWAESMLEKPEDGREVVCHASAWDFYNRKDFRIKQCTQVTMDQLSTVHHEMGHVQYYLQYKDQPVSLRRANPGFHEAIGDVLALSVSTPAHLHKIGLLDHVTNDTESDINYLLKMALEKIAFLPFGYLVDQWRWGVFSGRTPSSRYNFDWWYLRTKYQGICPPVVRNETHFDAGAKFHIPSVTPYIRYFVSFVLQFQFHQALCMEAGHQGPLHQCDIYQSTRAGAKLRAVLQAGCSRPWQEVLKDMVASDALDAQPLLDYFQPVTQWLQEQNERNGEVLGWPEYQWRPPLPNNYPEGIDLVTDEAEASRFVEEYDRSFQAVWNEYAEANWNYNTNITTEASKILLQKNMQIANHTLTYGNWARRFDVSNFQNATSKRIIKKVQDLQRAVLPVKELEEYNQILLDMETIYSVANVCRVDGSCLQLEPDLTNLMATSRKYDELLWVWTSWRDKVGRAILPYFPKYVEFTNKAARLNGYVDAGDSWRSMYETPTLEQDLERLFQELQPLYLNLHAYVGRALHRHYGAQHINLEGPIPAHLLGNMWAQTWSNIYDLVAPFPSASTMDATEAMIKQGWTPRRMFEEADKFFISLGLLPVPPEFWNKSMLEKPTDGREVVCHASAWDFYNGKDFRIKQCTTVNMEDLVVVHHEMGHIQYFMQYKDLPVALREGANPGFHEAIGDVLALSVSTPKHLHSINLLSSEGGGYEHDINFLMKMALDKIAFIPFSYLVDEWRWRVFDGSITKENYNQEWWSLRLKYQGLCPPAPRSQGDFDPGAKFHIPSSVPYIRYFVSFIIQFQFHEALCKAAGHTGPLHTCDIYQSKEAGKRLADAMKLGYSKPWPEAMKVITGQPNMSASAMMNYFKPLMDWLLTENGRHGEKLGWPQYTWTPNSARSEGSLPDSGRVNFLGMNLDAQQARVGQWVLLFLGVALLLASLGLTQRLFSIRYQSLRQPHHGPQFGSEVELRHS

[3] = system: patients with hypertension; conditions: cited from earlier work
ACE [4] = molecular target: ACE (Homo sapiens, UniProt P12821); test: biochemical
[5] = molecular target: T2, human urinary angiotensin converting enzyme (Homo sapiens, UniProt P12821); test: Inhibition of hydrolysis of [3H]benzoyl-Gly-His-Leu by human urinary angiotensin converting enzyme; type: biochemical; conditions: [3H]benzoyl-Gly-His-Leu 100 μM (approximately one-half of Km), 37° C., 15 min., pH 8.0; read-out: I50
T2 construct: human urinary angiotensin converting enzyme, prepared as described by Ryan, J., et al; from tissue; host or cells: human urine
Description: ΔPro^3 -BPP9a, ΔPro^5 -BPP9a, ΔPro^8 -BPP9a, and ΔPro^9 -BPP9a were each compared with BPP9a (<Glu-Trp-Pro-Arg-Pro-Gln-Ile-Pro-Pro; also known as SQ 20,881) for their abilities to inhibit the hydrolysis of [^3 H]benzoyl-Gly-His-Leu by human urinary angiotensin converting enzyme, prepared as described by Ryan, J., et al., Tissue and Cell 10, 555 (1978). A standard amount of enzyme (the amount required to hydrolyze 8% of substrate during the course of incubation at 37° C. for 15 min.) was incubated with [^3 H]benzoyl-Gly-His-Leu in a final reaction volume of 100 μl or 110 μl. The reaction mixture contained 0.05 M Hepes buffer, pH 8.0, 0.1 M NaCl, 0.75 M Na2 SO4, [^3 H]-benzoyl-Gly-His-Leu (100 μM at 10 mCi/mmole, enzyme and varying concentrations of inhibitor, from […]. Net enzyme activity was measured in terms of the rate of formation of [^3 H]benzoyl-glycine (^3 H-hippuric acid). Under the conditions of the assay, the initial substrate concentration is approximately one-half of Km. Results are expressed as I50 values, i.e., the concentration of a given inhibitor required to reduce enzyme activity by half.
These factors include the source of enzyme, its purity, the substrate used and its concentration, and the composition of the assay buffer. […] For example, Cushman, et al., supra, reported an I50 value for BPP9a of approximately 1000 nM, whereas Dorer, F.E., et al., Biochim. Biophys. Acta 429, 220 (1976) reported I50 values in the range 12nM-15nM. The sources of such variations are not known.

guinea pigs = test: Mean arterial blood pressure of guinea pigs anesthetized with pentobarbital; type: in vivo, guinea pig; conditions: single intravenous injection, 2 mg; for ill effects in test animals: blood pressure reduced to shock levels; for abnormalities in the electrocardiogram: Lead II monitored
Description: ΔPro^3 -BPP9a and ΔPro^5 -BPP9a were tested for their ability to reduce mean arterial blood pressure of guinea pigs anesthetized with pentobarbital, an anesthetic thought to activate the renin-angiotensin system. Female guinea pigs (500-700 g body wgt.) of the Ft. Detrick-Hartley strain were injected intraperitoneally with pentobarbital, 30 mg/kg. Tracheostomy was performed, and the animals were ventilated with a small animal respirator. A polyethylene cannula was inserted into a femoral vein, and heparin, 1,000 units, was injected. A second cannula was inserted into a femoral artery for measurement of arterial blood pressure. The arterial cannula was connected to a pressure transducer, and the transducer was connected to a polygraph. Lead II of the electrocardiogram was monitored continuously.
Each of three guinea pigs received a single intravenous injection of ΔPro^3 -BPP9a, 2 mg in 0.25 ml of 0.9% (w/v) NaCl. On average, mean arterial blood pressure fell by 57.2% (81.7 mmHg to 35 mmHg). The maximum reduction was achieved within 15 sec. of injection. Each of seven guinea pigs received a single intravenous injection of ΔPro^5 -BPP9a, 2 mg in 0.25 ml of saline.

T2 sequence (P12821 30-1306): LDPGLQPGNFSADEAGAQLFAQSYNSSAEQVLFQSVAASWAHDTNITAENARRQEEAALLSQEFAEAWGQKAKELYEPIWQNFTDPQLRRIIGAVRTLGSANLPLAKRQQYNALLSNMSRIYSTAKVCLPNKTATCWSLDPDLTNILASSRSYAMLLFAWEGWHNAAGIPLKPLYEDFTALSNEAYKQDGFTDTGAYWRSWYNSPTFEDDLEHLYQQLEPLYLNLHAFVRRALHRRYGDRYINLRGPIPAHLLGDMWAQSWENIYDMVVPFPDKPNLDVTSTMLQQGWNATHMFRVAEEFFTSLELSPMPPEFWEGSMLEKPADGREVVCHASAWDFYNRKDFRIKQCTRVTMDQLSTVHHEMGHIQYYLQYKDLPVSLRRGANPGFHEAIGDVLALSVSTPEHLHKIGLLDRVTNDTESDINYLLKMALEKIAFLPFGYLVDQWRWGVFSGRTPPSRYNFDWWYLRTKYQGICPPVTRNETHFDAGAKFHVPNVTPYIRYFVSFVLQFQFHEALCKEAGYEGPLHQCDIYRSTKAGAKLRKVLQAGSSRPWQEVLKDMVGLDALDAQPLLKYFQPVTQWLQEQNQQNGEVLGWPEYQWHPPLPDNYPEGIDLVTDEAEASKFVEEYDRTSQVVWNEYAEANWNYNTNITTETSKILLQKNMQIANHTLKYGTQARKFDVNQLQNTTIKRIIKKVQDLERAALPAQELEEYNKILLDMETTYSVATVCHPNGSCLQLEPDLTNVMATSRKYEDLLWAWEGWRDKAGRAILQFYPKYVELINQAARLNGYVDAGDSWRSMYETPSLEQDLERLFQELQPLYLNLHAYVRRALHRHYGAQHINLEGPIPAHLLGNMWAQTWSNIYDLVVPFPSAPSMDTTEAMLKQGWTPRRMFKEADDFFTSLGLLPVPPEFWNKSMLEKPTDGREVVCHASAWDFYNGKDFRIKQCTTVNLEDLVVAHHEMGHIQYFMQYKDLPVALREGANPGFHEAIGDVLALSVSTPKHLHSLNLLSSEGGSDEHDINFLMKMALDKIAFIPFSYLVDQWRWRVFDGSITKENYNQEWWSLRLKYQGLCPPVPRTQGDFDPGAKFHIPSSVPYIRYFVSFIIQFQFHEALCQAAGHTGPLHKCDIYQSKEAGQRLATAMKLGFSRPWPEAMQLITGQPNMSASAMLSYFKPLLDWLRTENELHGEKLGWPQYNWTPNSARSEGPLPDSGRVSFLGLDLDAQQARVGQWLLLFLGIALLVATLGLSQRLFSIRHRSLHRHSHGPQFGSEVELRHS
Chain of ACE (Homo sapiens, UniProt P12821) (P12821 30-1306, species assumed): as the sequence (P12821 30-1306) above

C[C@H](CS)C(=O)N1CCCC1C(=O)O (stereo in doubt) [SQ 14,225, D-2-methyl-3-mercaptopropanoyl-L-proline]
patients known to benefit from ACE inhibitors who respond adversely (patients; human, in vivo): ≤ 11%
oral effectiveness (patients; oral): effective orally
stability in solution [1]: instability of the drug in solution due to disulfide dimer formation

CC[C@H](C)[C@H](NC(=O)[C@H](CCC(N)=O)NC(=O)[C@@H]1CCCN1C(=O)[C@H](CCCNC(=N)N)NC(=O)[C@@H]1CCCN1C(=O)[C@H](Cc1c[nH]c2ccccc12)NC(=O)[C@@H]1CCC(=O)N1)C(=O)N1CCC[C@H]1C(=O)N1CCC[C@H]1C(=O)O [BPP9a, <Glu-Trp-Pro-Arg-Pro-Gln-Ile-Pro-Pro]
IC50 (ACE [2]): ~1000 nM
side reactions of the type observed with SQ 14,225, in clinical use of BPP9a [3]: have not been encountered previously
IC50 (ACE [4]): ~28 nM
IC50 [5]: 28 nM

NC(N)=NCCC[C@H](NC(=O)[C@H](Cc1ccccc1)NC(=O)[C@@H]1CCCN1C(=O)[C@H](CO)NC(=O)[C@H](Cc1ccccc1)NC(=O)CNC(=O)[C@@H]1CCCN1C(=O)[C@@H]1CCCN1C(=O)[C@@H](N)CCCN=C(N)N)C(=O)O [bradykinin, ArgProProGlyPheSerProPheArg] (H-RPPGFSPFR-OH)
IC50 (ACE [4]): ~500 nM

CC[C@H](C)[C@H](NC(=O)[C@H](CCC(N)=O)NC(=O)[C@@H]1CCCN1C(=O)[C@H](CCCNC(=N)N)NC(=O)[C@@H]1C=CCN1C(=O)[C@H](Cc1c[nH]c2ccccc12)NC(=O)[C@@H]1CCC(=O)N1)C(=O)N1CCC[C@H]1C(=O)N1CCC[C@H]1C(=O)O [ΔPro^3 -BPP9a, <Glu-Trp-ΔPro-Arg-Pro-Gln-Ile-Pro-Pro]
increase in heart rate (guinea pigs): 0-10%
ill effects in test animals (guinea pigs): no ill effects
abnormalities in the electrocardiogram (guinea pigs): no abnormalities were observed
IC50 [5]: 0.9 nM

CC[C@H](C)[C@H](NC(=O)[C@H](CCC(N)=O)NC(=O)[C@@H]1C=CCN1C(=O)[C@H](CCCNC(=N)N)NC(=O)[C@@H]1CCCN1C(=O)[C@H](Cc1c[nH]c2ccccc12)NC(=O)[C@@H]1CCC(=O)N1)C(=O)N1CCC[C@H]1C(=O)N1CCC[C@H]1C(=O)O [ΔPro^5 -BPP9a, <Glu-Trp-Pro-Arg-ΔPro-Gln-Ile-Pro-Pro]
increase in heart rate (guinea pigs): 0-10%
ill effects in test animals (guinea pigs): no ill effects
abnormalities in the electrocardiogram (guinea pigs): no abnormalities were observed
IC50 [5]: 0.9 nM

CC[C@H](C)[C@H](NC(=O)[C@H](CCC(N)=O)NC(=O)[C@@H]1CCCN1C(=O)[C@H](CCCNC(=N)N)NC(=O)[C@@H]1CCCN1C(=O)[C@H](Cc1c[nH]c2ccccc12)NC(=O)[C@@H]1CCC(=O)N1)C(=O)N1CC=C[C@H]1C(=O)N1CCC[C@H]1C(=O)O [ΔPro^8 -BPP9a, <Glu-Trp-Pro-Arg-Pro-Gln-Ile-ΔPro-Pro]
IC50 [5]: 60 nM

CC[C@H](C)[C@H](NC(=O)[C@H](CCC(N)=O)NC(=O)[C@@H]1CCCN1C(=O)[C@H](CCCNC(=N)N)NC(=O)[C@@H]1CCCN1C(=O)[C@H](Cc1c[nH]c2ccccc12)NC(=O)[C@@H]1CCC(=O)N1)C(=O)N1CCC[C@H]1C(=O)N1CC=C[C@H]1C(=O)O [ΔPro^9 -BPP9a, <Glu-Trp-Pro-Arg-Pro-Gln-Ile-Pro-ΔPro]
IC50 [5]: 0.15 nM
